Where “and” joins values, the source holds several entries; their conditions need not be identical. Equal entries are not always repeated. Where two headings read alike, the source gives them in different places. Numbered stars: 1 amine (or outer) side, 2 acyl side, 3 side chain; on linkers, the order of the positions; unused ones are H or OH. Bridge positions count the residues as written; N and C are the ends. Peptide text beside a SMILES is read from it. * marks the point of attachment. X1 = O=C(O)CN1CCN(CC(=O)O)CCN(CC(=O)N2CCN(Cc3cc(C[*:1])cc(C[*:2])c3)CC2)CCN(CC(=O)O)CC1; Hexanoyl = CCCCCC(=O)*
Assays:
[1] = system: MCA205-mFAP tumors; test: Tumor mass in pharmacodynamic study; assay type: in vivo, C57BL/6 mice; details: day 13 pi; n = 8 per group; vehicle 1433 mg
From the text: (§1) Female C57BL/6 mice were subcutaneously implanted with 1 × 10^6 MCA205-mFAP cells (n = 12 per group). […] Treatment began when the MTV was 94 mm^3 (mean body weight 20.4 g). […] Treatment began when MTV was 162 mm^3 (mean body weight 20.8 g) and tumors were collected at days 8 and 13 pi for analysis.

[2] = system: MCA205-mFAP syngeneic tumor model; test: Tumor in vivo efficacy study
Method: Female C57BL/6 mice were subcutaneously implanted with 1 × 10^6 MCA205-mFAP cells (n = 12 per group). […] Treatment began when the MTV was 94 mm^3 (mean body weight 20.4 g).
Calculation of tumor growth inhibition (TGI). Percent TGI is defined as the difference between the mean tumor volume of the test group and the control group. TGI values are calculated as follows:
Tᵢ is the mean tumor volume of a treatment group on a given day i, T₀ is the mean tumor volume of the treatment group on the day treatment started (day 0), Vᵢ is the mean tumor volume of the vehicle control group on the same day as Tᵢ, and V₀ is the mean tumor volume of the vehicle group on the initial day of treatment (day 0).
Calculation of body weight loss. Relative body weight (RBW) was calculated as follows:
BWᵢ is the mean body weight of one group on a given day i, BW0 is the mean body weight of the same group on the day treatment started (day 0).
Statistical analysis. For the evaluation of the statistical significance of antitumor efficacy, body weight change, and immune profiling, two-way ANOVA with multiple comparisons was performed using GraphPad Prism (Version 8.4).
All P values <0.05 were considered statistically significant.

[3] = system: T cell infiltrates of MCA205-mFAP tumors; test: IHC quantification of CD8+ and CD4+ T cells in tumors
Method: Tumors were formalin-fixed and paraffin-embedded and processed into 4 μm tissue sections. Tumor sections were stained for FAP (EPR20021, Abcam), CD8 (D4W2Z, Cell Signaling), and CD4 (EPR19514, Abcam) on a Bond Rx autostainer (Leica Biosystems) with Bond Polymer Refine Detection (Leica Biosystems) according to the manufacturer's protocol. After staining, sections were dehydrated and film cover slipped using a TissueTek-Prisma and Coverslipper (Sakura). Whole slide scanning (40x) was performed on an Aperio AT2 (Leica Biosystems). Image analysis and quantification was performed on Aperio ImageScope v12.1 (Leica Biosystems) or QuPath v0.1.2 [18].
A tissue slide containing both intrinsic positive staining structures was included in every staining run. For FAP H-score assessment, the staining intensity was scored as 0, 1, 2, or 3 corresponding to the presence of negative, weak, intermediate, and strong brown staining, respectively. The average percentage positive was calculated for each intensity category and the following calculation was applied: H-score = (% of cells stained at intensity category 1 x 1) + (% of cells stained at intensity category 2 x 2) + (% of cells stained at intensity category 3 x 3). Image analysis scoring was previously validated against scoring performed by a pathologist. For CD4 and CD8 percentage assessment, QuPath positive cell detection function was used.

[4] = system: immune gene expression in MCA205-mFAP tumors; test: Tumor RNA expression analysis (nCounter PanCancer Immune Profiling panel); assay type: in vivo, C57BL/6 mice
From the text: Total RNA was isolated from tumors using the PureLink RNA Mini kit (Thermo Fisher Scientific) following the manufacturer’s protocol. The nCounter PanCancer Immune Profiling (mouse) panel (NanoString Technologies) was used to measure the expression in the RNA samples. Following hybridization, transcripts were quantitated and analyzed using the nCounter Digital Analyzer and nCounter Advanced Analysis Software v4.0 (NanoString Technologies). Data were normalized for assay efficiency by multiplying each count by a positive normalization factor obtained for each sample. For differential expression analysis, the Benjamini-Yekutieli statistical analysis, which calculates false discovery rate, was employed to generate an adjusted p-value.

[5] = In vivo biodistribution by SPECT/CT imaging; set-up: species or system C57BL/6 mice; details: female, C57BL/6, mouse, total radioactivity; for tissue uptake at 3 h / tissue uptake at 24 h / tissue uptake at 48 h / tissue uptake at 72 h: mean ± SD, n = 6, SD
Method: All animal experiments were carried out under licenses approved by the respective authorities and in compliance with guidelines on animal welfare. […] Animals were anesthetized (isoflurane 3% in 100% O2) and eye lubricants were applied before each scan. Study was performed at Minerva Imaging ApS (Denmark).
Imaging and image analysis were performed as described. During the scan, mice were kept under isoflurane anesthesia, and body temperature was maintained under warm air. The following acquisition parameters were used for the respective imaging modality.
For quantification, VivoQuant (InviCRO) was used to draw regions of interest (ROIs) in relevant tissues, with a ROI drawn over the left ventricle of the heart to serve as blood pool surrogate. Percentage injected dose per gram of tissue (%ID/g) was calculated from the tissue-associated radioactivity determined in the ROI, the volume of the ROI, and the decay-corrected dose entered during preprocessing of the images in VivoQuant.

[6] = system: immune infiltrates of MCA205-mFAP tumors; test: Ex vivo immune profiling of tumors by flow cytometry; details: for CD8^+ (%, CD45^+) / CD86^+ on TAM (MFI) / CD127^+CD8^+ (%, CD8^+) / CD127 on CD127^+CD8^+ (MFI) / T cells (%, CD45^+) / TAM (%, CD45^+) / CD45^+ (%, total): mean ± SEM; for CD8^+ (%, CD45^+) / CD86^+ on TAM (MFI) / CD127^+CD8^+ (%, CD8^+) / CD127 on CD127^+CD8^+ (MFI) / T cells (%, CD45^+) / TAM (%, CD45^+) / CD4+ (%, CD45+) / CD25+CD4+ (%, CD4+) / CD25+CD8+ (%, CD8+) / CD25 on CD4+ (MFI) / CD25 on CD25+CD8+ (MFI) / CD86+ TAMs (%, TAMs) / CD127+CD4+ (%, CD4+) / CD127 on CD4+ (MFI) / CD45^+ (%, total): n = 8 per group; for CD45^+ (%, total): tumor flow cytometry;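 on all read-outs here: subcutaneous MCA205-mFAP tumors in female C57BL/6 mice, treated from a mean tumor volume of 162 mm^3, excised on day 8 or 13 pi and profiled by flow cytometry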
Method: as §1
Tumors were dissected into small pieces, digested using a tumor dissociation enzyme mix (Miltenyi Biotec) at 37 °C for 40 min in a shaking water bath, processed through 70 μM cell strainers and counted (NucleoCounter NC-202, Chemotec). Cells (10 × 10^6) were Fc-blocked (2.4G2, BD Biosciences) and stained in FACS buffer (PBS with 0.5% BSA, 0.1% NaN3 and 2 mM EDTA) with Brilliant Stain Buffer Plus (BD Biosciences) for surface markers CD45 (30-F11), CD3 (145-2C11), CD4 (RM4-5), CD8 (53–6.7), CD25 (PC61), CD127 (SB/199), Ly6g (1A8), Ly6c (HK1.4), CD11b (M1/70), CD86 (GL1), CD314 (CX5), F4/80 (T45-2342), and eFlour 780 fixable viability dye (Thermo Fisher Scientific) for 30 min on ice. Anti-Ly6c was purchased from Biolegend, while remaining antibodies were from BD Biosciences. Samples were washed and acquired on the FACSymphony A3 and analyzed in FlowJo v10.8.1 (BD Biosciences, Supplementary Fig. S1).
PMN-MDSC CD45+ CD11b+ Ly6c+ Ly6g+
Mo-MDSC CD45+ CD11b+ Ly6c HighLy6g-
Gating strategy for immune profiling of MCA205-mFAP tumors by flow
cytometry. Representative bivariate density plots show gating strategy to identify the PMN-MDSC, Mo-
MDSC, TAM and T-cells in the MCA205-mFAP tumors (A). Marker sets used to identify each immune
cell type are listed (B).

[7] = day 8 pi, differential expression versus vehicle, 770-plex panel

CCCCCC(=O)N[C@H]1CSCc2cc(cc(CN3CCN(C(=O)CN4CCN(CC(=O)O)CCN(CC(=O)O)CCN(CC(=O)O)CC4)CC3)c2)CSC[C@@H](C(=O)N[C@@H](CC(=O)O)C(N)=O)NC(=O)[C@H](Cc2ccccc2)NC(=O)[C@H](CCC(N)=O)NC(=O)[C@H]([C@@H](C)O)NC(=O)[C@@H]2CCCN2C(=O)[C@@H]2CCCN2C1=O [^177Lu-FAP-2287, metal not drawn] (Hexanoyl-CPPTQFCD-NH2; linker 1-7 via X1; N-terminus and C-terminus assumed)
Tumor mass [1]: 746 mg | TGI, Day 10 ([2]; day 10 pi, versus vehicle, n = 12 per group): 74% | MTV, Day 10 ([2]; day 10 pi, 60 MBq 177Lu-FAP-2287 single iv dose and/or 10 mg/kg anti-PD-1 ip twice weekly, mean ± SEM, n = 12, vehicle 749.6 ± 91.2, SEM): 266.5 ± 53.2 mm^3 | RBW at nadir ([2]; relative body weight change at nadir (Day 2), mean ± SEM, n = 12, SEM): -1.1 ± 0.7% | CD8^+ T cells by IHC (% of total cells) ([3]; day 8 pi, vehicle 4.9%): 9.0% | CD8^+ T cells by IHC (% of total cells) ([3]; day 13, vehicle 4.4%): 8.5% | number of gene transcripts decreased [4, 7]: 15 genes | number of genes with significantly increased RNA levels [4, 7]: 28 genes | number of day 8 differentially expressed genes still differentially expressed at day 13 pi ([4]; day 13 pi): 16 genes | CCL5 RNA increase in tumors ([4]; fold versus vehicle, day not given): 1.95 fold | tissue uptake at 3 h ([5]; blood pool surrogate (left ventricle of the heart), iv, 30 MBq, 3 h p.i., ROI over left ventricle of the heart, read-out: Blood Pool Surrogate %ID/g): 0.5 %ID/g | tissue uptake at 24 h ([5]; blood pool surrogate (left ventricle of the heart), iv, 30 MBq, 24 h p.i., ROI over left ventricle of the heart, read-out: Blood Pool Surrogate %ID/g): 0.1 %ID/g | tissue uptake at 48 h ([5]; blood pool surrogate (left ventricle of the heart), iv, 30 MBq, 48 h p.i., ROI over left ventricle of the heart, read-out: Blood Pool Surrogate %ID/g): 0.1 %ID/g | tissue uptake at 72 h ([5]; blood pool surrogate (left ventricle of the heart), iv, 30 MBq, 72 h p.i., ROI over left ventricle of the heart, read-out: Blood Pool Surrogate %ID/g): 0.1 %ID/g | tissue uptake at 3 h ([5]; kidney, 3 h p.i., 30 MBq iv, read-out: Kidney %ID/g): 2 ± 0.1 %ID/g | tissue uptake at 24 h ([5]; kidney, 24 h p.i., 30 MBq iv, read-out: Kidney %ID/g): 1.1 ± 0.1 %ID/g | tissue uptake at 48 h ([5]; kidney, 48 h p.i., 30 MBq iv, read-out: Kidney %ID/g): 0.9 %ID/g | tissue uptake at 72 h ([5]; kidney, 72 h p.i., 30 MBq iv, read-out: Kidney %ID/g): 0.6 ± 0.1 %ID/g | tissue uptake at 3 h ([5]; liver, 3 h p.i., 30 MBq iv, read-out: Liver %ID/g): 0.5 %ID/g | tissue uptake at 24 h ([5]; liver, 24 h p.i., 30 MBq iv, read-out: Liver %ID/g): 0.3 %ID/g | tissue uptake at 48 h ([5]; liver, 48 h p.i., 30 MBq iv, read-out: Liver %ID/g): 0.3 %ID/g | tissue uptake at 72 h ([5]; liver, 72 h p.i., 30 MBq iv, read-out: Liver %ID/g): 0.2 %ID/g | tissue uptake at 3 h ([5]; tumor, 3 h p.i., 30 MBq (1 nmol) iv, SPECT/CT, read-out: Tumor %ID/g): 8.2 ± 0.5 %ID/g | tissue uptake at 24 h ([5]; tumor, 24 h p.i., 30 MBq (1 nmol) iv, SPECT/CT, read-out: Tumor %ID/g): 2.9 ± 0.2 %ID/g | tissue uptake at 48 h ([5]; tumor, 48 h p.i., 30 MBq (1 nmol) iv, SPECT/CT, read-out: Tumor %ID/g): 1.6 ± 0.1 %ID/g | tissue uptake at 72 h ([5]; tumor, 72 h p.i., 30 MBq (1 nmol) iv, SPECT/CT, read-out: Tumor %ID/g): 0.9 ± 0.1 %ID/g | tissue to tissue ratio at 3 h ([5]; tumor/kidney, iv, 30 MBq, 3 h p.i., read-out: T/K ratio (tumor-to-kidney)): 4.1 | tissue to tissue ratio at 24 h ([5]; tumor/kidney, iv, 30 MBq, 24 h p.i., read-out: T/K ratio (tumor-to-kidney)): 2.6 | tissue to tissue ratio at 48 h ([5]; tumor/kidney, iv, 30 MBq, 48 h p.i., read-out: T/K ratio (tumor-to-kidney)): 1.8 | tissue to tissue ratio at 72 h ([5]; tumor/kidney, iv, 30 MBq, 72 h p.i., read-out: T/K ratio (tumor-to-kidney)): 1.5 | CD8^+ (%, CD45^+) ([6]; Day 8 pi, SEM): 16.9 ± 3.2% | CD86^+ on TAM (MFI) ([6]; Day 8 pi, SEM): 3928 ± 124 MFI | CD127^+CD8^+ (%, CD8^+) ([6]; Day 8 pi, SEM): 50.0 ± 5.3% | CD127 on CD127^+CD8^+ (MFI) ([6]; Day 8 pi, SEM): 1011 ± 118 MFI | T cells (%, CD45^+) ([6]; Day 8 pi, SEM): 22.9 ± 3.6% | TAM (%, CD45^+) ([6]; Day 8 pi, SEM): 23.0 ± 1.1% | CD4+ (%, CD45+) ([6]; Day 8 pi): 6.0 ± 0.6% | CD25+CD4+ (%, CD4+) ([6]; Day 8 pi): 60.4 ± 1.3% | CD25+CD8+ (%, CD8+) ([6]; Day 8 pi): 7.7 ± 1.1% | CD25 on CD4+ (MFI) ([6]; Day 8 pi): 931 ± 117 MFI | CD25 on CD25+CD8+ (MFI) ([6]; Day 8 pi): 84 ± 6 MFI | CD86+ TAMs (%, TAMs) ([6]; Day 8 pi): 89.5 ± 1.7% | CD127+CD4+ (%, CD4+) ([6]; Day 8 pi): 41.0 ± 1.8% | CD127 on CD4+ (MFI) ([6]; Day 8 pi): 777 ± 43 MFI | CD45^+ (%, total) ([6]; Day 8 pi, SEM): 23.6 ± 3.1% | CD8^+ (%, CD45^+) ([6]; Day 13 pi, SEM): 11.9 ± 1.5% | CD86^+ on TAM (MFI) ([6]; Day 13 pi, SEM): 4063 ± 143 MFI | CD127^+CD8^+ (%, CD8^+) ([6]; Day 13 pi, SEM): 44.5 ± 3.7% | CD127 on CD127^+CD8^+ (MFI) ([6]; Day 13 pi, SEM): 874 ± 86 MFI | T cells (%, CD45^+) ([6]; Day 13 pi, SEM): 19.0 ± 1.5% | TAM (%, CD45^+) ([6]; Day 13 pi, SEM): 39.4 ± 1.4% | CD4+ (%, CD45+) ([6]; Day 13 pi): 7.2 ± 0.4% | CD25+CD4+ (%, CD4+) ([6]; Day 13 pi): 64.5 ± 1.2% | CD25+CD8+ (%, CD8+) ([6]; Day 13 pi): 5.3 ± 0.6% | CD25 on CD4+ (MFI) ([6]; Day 13 pi): 1182 ± 80 MFI | CD25 on CD25+CD8+ (MFI) ([6]; Day 13 pi): 70 ± 4 MFI | CD86+ TAMs (%, TAMs) ([6]; Day 13 pi): 92.0 ± 1.2% | CD127+CD4+ (%, CD4+) ([6]; Day 13 pi): 38.9 ± 2.2% | CD127 on CD4+ (MFI) ([6]; Day 13 pi): 736 ± 51 MFI | CD45^+ (%, total) ([6]; Day 13 pi, SEM): 21.6 ± 1.4% | CD86+ Mo-MDSCs (%, Mo-MDSCs) ([6]; mouse, in vivo): 84.9 ± 1.2% and 82.2 ± 2.9% | PMN-MDSCs (%, CD45+) ([6]; mouse, in vivo): 9.6 ± 3.9% and 10.0 ± 1.3% | CD86^+ on Mo-MDSC (MFI) ([6]; mouse, in vivo, SEM): 3267 ± 80 MFI and 2939 ± 114 MFI | Mo-MDSC (%, CD45^+) ([6]; mouse, in vivo, SEM): 34.9 ± 0.9% and 21.3 ± 1.3%

Reference: PMC10317891, “Fibroblast activation protein targeted radiotherapy induces an immunogenic tumor microenvironment and enhances the efficacy of PD-1 immune checkpoint inhibition” (European Journal of Nuclear Medicine and Molecular Imaging, 2023)
